# Biological target: Prostaglandin E2 receptor EP2 subtype (Homo sapiens) (UniProt P43116)
# Test: EP2 receptor modulators, dose response, cell-based, human EP2, PGE2 EC50 shift (AID 1421)
# Details: EP2-expressing cells, PGE2 EC50 shift by compound; measured here: PGE2 EC50 at 6.7 uM compound
# Sequence of Prostaglandin E2 receptor EP2 subtype (Homo sapiens) (P43116 whole entry, looked up): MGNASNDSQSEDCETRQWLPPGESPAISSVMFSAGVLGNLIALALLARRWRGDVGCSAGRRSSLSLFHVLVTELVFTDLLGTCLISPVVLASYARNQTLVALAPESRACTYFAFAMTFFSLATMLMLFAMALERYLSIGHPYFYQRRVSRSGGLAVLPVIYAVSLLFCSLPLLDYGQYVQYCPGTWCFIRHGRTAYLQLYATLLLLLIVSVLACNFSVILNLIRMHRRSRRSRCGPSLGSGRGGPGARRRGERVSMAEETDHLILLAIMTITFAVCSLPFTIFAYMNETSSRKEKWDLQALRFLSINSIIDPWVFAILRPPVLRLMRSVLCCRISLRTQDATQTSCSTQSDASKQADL
row,SMILES,PGE2 EC50 with compound
1,CCOC(=O)N1CCC(=C2c3ccc(Cl)cc3CCc3cccnc32)CC1,0.95 nM
2,S=c1[nH]nc(-c2ccco2)n1/N=C/c1ccc(Cl)cc1Cl,1.06 nM
3,Cc1cc(NC(=O)CN2CCCC(C)C2)n(-c2nc3ccccc3s2)n1 (centres undefined),0.75 nM
4,CCOP(=O)(OCC)c1nc(-c2cccc3ccccc23)oc1NCc1ccccc1,2.48 nM
5,O=c1c2ccccc2nc(/C=C/c2ccccc2)n1CCc1ccccc1,0.92 nM
6,COc1ccc(Nc2nc(-c3cc4cccc(OC)c4oc3=O)cs2)cc1,1.29 nM
7,C/C=C/Cn1c(SCc2ccc(C)cc2)nc2c1c(=O)[nH]c(=O)n2C,0.78 nM
8,COc1cc(OC)c2c(OC)c(-c3ccc4c(c3)OCO4)c(=O)oc2c1,1.43 nM
9,CCCC(=O)O[C@H]1C[C@@H](C)N(C(=O)c2ccccc2)c2ccc(C)cc21,0.88 nM
10,CCN(CC)c1ccc(/C=C2\C(=O)c3ccc(C(=O)O)cc3C2=O)cc1,1.04 nM
11,Cc1ccc(S(=O)(=O)n2c3ccc(F)cc3c3nc(C)sc32)cc1,0.84 nM
12,COc1ccccc1C1c2[nH]c3ccccc3c2CCN1Cc1cnc(C)s1 (centres undefined),1.59 nM
13,Cc1ccn2c(Nc3ccccc3C)c(-c3ccccn3)nc2c1,0.73 nM
14,C(=N\N(Cc1ccccc1)c1ccccc1)/c1cccnc1,1.34 nM
15,CC1CCc2c(sc(N)c2C(=O)OC(C)C)C1 (centres undefined),0.91 nM
16,O=C(Nc1ccccc1N1CCOCC1)c1ccc2ccccc2n1,0.82 nM
17,CCOC(=O)CCN(Cc1sccc1C)S(=O)(=O)c1ccc(F)cc1,1.15 nM
18,CCOC(=O)C1=C(N)OC(C)=C(C#N)C1c1ccco1 (centres undefined),1.49 nM
19,CCOCC(=O)Nc1sc2c(c1C(=O)OCC)CCCC2,1.18 nM
20,O=S(=O)(c1cccc(C(F)(F)F)c1)N1c2ccccc2-n2cccc2[C@H]1c1cccnc1,1.09 nM

row,SMILES,PGE2 EC50 with compound
1,Cn1c(=O)c2c(nc(SCC(=O)c3cccs3)n2Cc2ccc(F)cc2)n(C)c1=O,0.99 nM
2,Cc1cccc(CSc2ncnc3ccccc23)c1,0.87 nM
3,Cc1ccc(C)n1-c1sc2c(c1C#N)CCCC2,2.65 nM
4,Cc1ccc(CN2C(=O)/C(=C\c3ccc(C(=O)NCc4cccnc4)cc3)Oc3ccccc32)cc1,0.95 nM
5,Cc1nc2c(-c3ccccc3)c(C)nn2c(C)c1CCC(=O)N1CCOCC1,1.09 nM
6,CCc1cc(-c2[nH]ncc2-c2ccc3c(c2)OCO3)c(O)cc1O,1.31 nM
7,CC1(C)C=Cc2c(c3c(c4c(=O)c(-c5ccc(O)cc5)coc24)OC(C)(C)CC3)O1,1.11 nM
8,CCCn1c(-c2cccs2)nc2c1c(=O)[nH]c(=O)n2Cc1ccccc1,2.78 nM
9,COc1ncnc2c1oc1nc(CC(C)C)c3c(c12)CCCC3,0.91 nM
10,FC(F)(F)c1cc(-c2ccccc2)nc(N2CCOCC2)n1,1.59 nM
11,S=c1nc[nH]c2c1[nH]c1ccccc12,1.29 nM
12,CCOC(=O)C1=C(C)NC(C)=C(C(=O)OC)C1c1cccc(Cl)c1Cl (centres undefined),0.69 nM
13,COc1ccc(C)cc1-n1c(=O)c2ccccc2c2ccccc2c1=O,0.71 nM
14,N/C(CSc1nc(-c2ccccc2)c(-c2ccccc2)o1)=N\O,1.14 nM
15,Cn1c(=O)[nH]c(=O)c2c1nc(CN1CCN(c3cccc(Cl)c3)CC1)n2CCCc1ccccc1,1.19 nM
16,CNC[C@H](O)c1ccc(O)c(O)c1,0.65 nM
17,CCn1c2ccc(Cl)cc2c2nc3ccccc3nc21,0.98 nM
18,COCCCN(C(=O)c1ccco1)c1nc(-c2cc(OC)ccc2OC)cs1,0.9 nM
19,CC(C)c1nc(N2CCN(C(=O)c3ccccc3)CC2)c(C#N)c2c1COC(C)(C)C2,0.97 nM
20,Cc1nc(N(C)C)c2sc(=S)n(Cc3ccccc3)c2n1,1.21 nM

row,SMILES,PGE2 EC50 with compound
1,O=C(Nc1ccccc1-c1ccccc1)c1ccc(Br)o1,1.27 nM
2,c1ccc(-c2noc(-c3ccccc3-c3ccccc3)n2)cc1,0.84 nM
3,CNC(=O)NC(=O)CSc1nc(-c2cccs2)c(C#N)c(=O)[nH]1,3.08 nM
4,c1ccc(Oc2nc3ccccc3n3cccc23)cc1,0.86 nM
5,Cc1ccc(S(=O)(=O)n2c3ccc(Cl)cc3c3nc(C)sc32)cc1,0.44 nM
6,CCOc1ccc(-n2nc3c(=S)[nH]nc(C)c3c2C)cc1,3.04 nM
7,COc1ccc(-n2c(COc3cccc4ccccc34)nnc2SCC#N)cc1,1.19 nM
8,C=CCc1cc(C=O)cc(OC)c1OCc1c(Cl)cccc1Cl,0.59 nM
9,COc1ccccc1CNC(=O)C1(c2ccc(Cl)cc2)CC1,0.82 nM
10,CCOC(=O)c1c(NC(=O)Cc2cccs2)sc(C)c1C,0.87 nM
11,CCCCNCC(=O)Nc1sc(C)c(C)c1C(=O)OCC,2.33 nM
12,C[C@H](N)[C@H](O)c1ccc(O)c(O)c1,1.32 nM
13,Cc1ccc(C(=O)c2cnc3ccccc3c2-c2ccccc2)cc1,0.64 nM
14,COc1c2c(cc3occ(-c4ccc5c(c4)OCO5)c(=O)c13)OC(C)(C)C=C2,1.07 nM
15,c1cncc(-c2nc(N3CCOCC3)c3c4c(sc3n2)CCC4)c1,1.15 nM
16,COC(=O)c1sccc1NC(=O)c1cccc(OC)c1,1.42 nM
17,CCOc1ccccc1C(=O)Nc1ccsc1C(=O)OC,1.32 nM
18,O=C(CNCc1ccccc1Cl)Nc1ccccc1N1CCCCC1,0.64 nM
19,COc1ccc(-c2cc(C(F)(F)F)nc(N3CCCCC3)n2)cc1OC,0.57 nM

# From PubChem BioAssay AID1421 (Emory University Molecular Libraries Screening Center, 2008)
